Results: ChEMBL document CHEMBL1201862, “PubChem BioAssay data set” (2004)
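A five-concentration, 48-hour dose response in 96-well plates underlies each endpoint, interpolated linearly between surrounding concentrations. Abbreviation: GI50, concentration required for 50% inhibition of growth.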 Activity calls are given as the source filed them. Cut-off read from the data, not from the text of the source: active = GI50 up to about 1.1 µM and inactive = higher.

How the values were obtained:
Experiment in all cases: NCI-60 cell line screen, 48 h
CCRF-CEM = system: CCRF-CEM
HT-29 = system: HT-29
IGROV-1 = system: IGROV-1
M19-MEL = system: M19-MEL
MCF7 = system: MCF7
NCI-H226 = system: NCI-H226
NCI-H460 = system: NCI-H460
NCI-H522 = system: NCI-H522
OVCAR-3 = system: OVCAR-3
OVCAR-5 = system: OVCAR-5
RPMI-8226 = system: RPMI-8226
RXF 393 = system: RXF 393
SF-295 = system: SF-295
SNB-75 = system: SNB-75
U-251 = system: U-251
ACHN = system: ACHN
SR = system: SR
Hs-578T = system: Hs-578T
MDA-MB-231 = system: MDA-MB-231
PC-3 = system: PC-3

Row | Structure (SMILES) | GI50 (CCRF-CEM) | GI50 (HT-29) | GI50 (IGROV-1) | GI50 (M19-MEL) | GI50 (MCF7) | GI50 (NCI-H226) | GI50 (NCI-H460) | GI50 (NCI-H522) | GI50 (OVCAR-3) | GI50 (OVCAR-5) | GI50 (RPMI-8226) | GI50 (RXF 393) | GI50 (SF-295) | GI50 (SNB-75) | GI50 (U-251) | GI50 (ACHN) | GI50 (SR) | GI50 (Hs-578T) | GI50 (MDA-MB-231) | GI50 (PC-3)
1 | CCS(=O)(=O)Nc1ccc(Nc2c3ccccc3nc3ccccc23)c(OC)c1 | 0.0485 µM (active) | 1.07 µM (active) | 7.94 µM (inactive) | 1.64 µM (inactive) | 0.0984 µM (active) | 0.331 µM (active) | < 0.0114 µM (active) | 1.2 µM (inactive) | 2.03 µM (inactive) | 3.23 µM (inactive) | 0.28 µM (active) | 1.99 µM (inactive) | 0.13 µM (active) | 0.284 µM (active) | 0.158 µM (active) | – | – | – | – | –
2 | COc1cccc(/C=C2\CCC(C)(CN(C)C)C2=O)c1 (configuration not stated) | – | 53.3 µM (inactive) | > 100 µM (inactive) | 98.2 µM (inactive) | – | > 100 µM (inactive) | > 100 µM (inactive) | 30.7 µM (inactive) | > 100 µM (inactive) | > 100 µM (inactive) | 28.4 µM (inactive) | > 100 µM (inactive) | > 100 µM (inactive) | > 100 µM (inactive) | > 100 µM (inactive) | 98.9 µM (inactive) | 74.3 µM (inactive) | – | – | –
3 | CN1C(c2ccccc2)CC(=Nc2ccccc2)CC1c1ccccc1 (configuration not stated) | 16.2 µM (inactive) | 8.67 µM (inactive) | 12.6 µM (inactive) | 4.58 µM (inactive) | – | 11.7 µM (inactive) | 13.5 µM (inactive) | 4.65 µM (inactive) | 8.93 µM (inactive) | – | 2.98 µM (inactive) | 16.6 µM (inactive) | 15.6 µM (inactive) | 16.7 µM (inactive) | 6.82 µM (inactive) | – | 10.9 µM (inactive) | – | – | –
4 | Cc1cc(Cl)ccc1NC(=O)CC1SC(Nc2ccccc2Cl)=NC1=O (configuration not stated) | 29.6 µM (inactive) | 37.1 µM (inactive) | 49.5 µM (inactive) | 38.9 µM (inactive) | – | 24.2 µM (inactive) | 51.3 µM (inactive) | 29.8 µM (inactive) | 28.3 µM (inactive) | > 100 µM (inactive) | 23.2 µM (inactive) | 26.1 µM (inactive) | 52.6 µM (inactive) | 38.7 µM (inactive) | 26.4 µM (inactive) | 43.3 µM (inactive) | 20.6 µM (inactive) | – | – | –
5 | Cc1cc(/N=N/c2ccc(/N=N/c3c(O)c(S(=O)(=O)O)cc4cc(S(=O)(=O)O)ccc34)cc2C)ccc1/N=N/c1ccc2cc(S(=O)(=O)O)cc(S(=O)(=O)O)c2c1 | > 100 µM (inactive) | > 31.6 µM (inactive) | > 100 µM (inactive) | > 100 µM (inactive) | > 100 µM (inactive) | > 50.2 µM (inactive) | > 100 µM (inactive) | > 100 µM (inactive) | > 100 µM (inactive) | > 100 µM (inactive) | > 100 µM (inactive) | > 100 µM (inactive) | > 77.1 µM (inactive) | > 100 µM (inactive) | > 100 µM (inactive) | – | – | – | – | –
6 | CC1=NN2C(c3ccc([N+](=O)[O-])cc3)=CSC2=NC(C)(C)C1 | > 100 µM (inactive) | > 100 µM (inactive) | > 100 µM (inactive) | > 100 µM (inactive) | – | > 100 µM (inactive) | > 100 µM (inactive) | > 100 µM (inactive) | > 100 µM (inactive) | > 100 µM (inactive) | > 100 µM (inactive) | > 100 µM (inactive) | > 100 µM (inactive) | > 100 µM (inactive) | > 100 µM (inactive) | > 100 µM (inactive) | > 100 µM (inactive) | – | – | –
7 | CC(C)Cc1ccc(C(C)/C=C2\CCC(CN3CCOCC3)C2=O)cc1 (configuration not stated) | 1.3 µM (inactive) | 6.73 µM (inactive) | 7.71 µM (inactive) | 10.2 µM (inactive) | 4.31 µM (inactive) | 20.3 µM (inactive) | 14.8 µM (inactive) | 5.62 µM (inactive) | 4.1 µM (inactive) | 20.7 µM (inactive) | 0.665 µM (active) | 8.43 µM (inactive) | 15.3 µM (inactive) | 8.34 µM (inactive) | 13.5 µM (inactive) | 16 µM (inactive) | 2.08 µM (inactive) | 3.6 µM (inactive) | 1.73 µM (inactive) | 12.3 µM (inactive)
8 | O=C1C(=O)N(c2ccc(Cl)c(Cl)c2)C(=O)C(=O)C1c1nc2ccccc2s1 | 38.2 µM (inactive) | > 100 µM (inactive) | > 100 µM (inactive) | > 100 µM (inactive) | – | 88.7 µM (inactive) | – | > 100 µM (inactive) | > 100 µM (inactive) | > 100 µM (inactive) | > 100 µM (inactive) | > 100 µM (inactive) | > 100 µM (inactive) | > 100 µM (inactive) | > 100 µM (inactive) | > 100 µM (inactive) | > 100 µM (inactive) | – | – | –
9 | COC(=O)N/N=C(\C)c1sc(-c2nc(C)c(/C(C)=N/NC(=O)OC)s2)nc1C | 79.6 µM (inactive) | > 100 µM (inactive) | > 100 µM (inactive) | > 100 µM (inactive) | – | > 100 µM (inactive) | > 100 µM (inactive) | 41.7 µM (inactive) | > 100 µM (inactive) | > 100 µM (inactive) | > 100 µM (inactive) | > 100 µM (inactive) | > 100 µM (inactive) | > 100 µM (inactive) | > 100 µM (inactive) | > 100 µM (inactive) | 20.7 µM (inactive) | – | – | –
